Measurements: paper PMC8580996, “2-Oxoglutarate derivatives can selectively enhance or inhibit the activity of human oxygenases” (Nature Communications, 2021)
Several values for one entry are separate records, joined by “and”; a condition that tells them apart may be missing. Equal entries are not always repeated. Entries after “also recorded” stand apart in the source; their conditions may differ. Where two headings read alike, the source gives them in different places.

Legend:
AspH [1] = biological target: T1, AspH (Homo sapiens, UniProt Q12797); assay: Competition assay in a single reaction vessel, AspH-catalyzed hydroxylation (SPE-MS); format: biochemical
T1 construct: the tetratricopeptide repeat domain (His6-AspH315-758), was produced and purified as previously reported; made in house
T1 sequence (Q12797 315-758): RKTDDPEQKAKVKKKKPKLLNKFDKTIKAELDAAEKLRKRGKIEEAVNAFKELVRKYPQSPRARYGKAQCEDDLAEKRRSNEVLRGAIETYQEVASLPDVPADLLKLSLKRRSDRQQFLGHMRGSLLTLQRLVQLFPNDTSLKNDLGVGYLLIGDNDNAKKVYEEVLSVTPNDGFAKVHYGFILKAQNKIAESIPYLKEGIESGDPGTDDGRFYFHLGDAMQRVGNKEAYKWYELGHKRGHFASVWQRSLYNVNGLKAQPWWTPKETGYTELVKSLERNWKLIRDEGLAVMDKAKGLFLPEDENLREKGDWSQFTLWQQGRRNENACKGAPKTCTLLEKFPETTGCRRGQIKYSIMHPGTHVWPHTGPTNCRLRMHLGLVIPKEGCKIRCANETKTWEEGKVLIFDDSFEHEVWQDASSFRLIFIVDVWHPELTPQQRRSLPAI
Procedure: Mean of three independent runs (n = 3; mean ± SD). […] Cosubstrates: a 20 μM 2OG; b 20 μM 2OG; c 20 μM 1; d 20 μM 12; e 20 μM 12 and 100 μM 2OG; f 100 μM 14. Source data are provided as a Source Data file.
Mean of three independent runs (n = 3; mean ± SD). […] Source data are provided as a Source Data file.
Peptide turnover was monitored by SPE-MS using the same instrument configuration (with the exception that the peptides were eluted from the SPE cartridge with 0.1%v/v aqueous formic acid in 80/20 v/v acetonitrile/water) as described above.
FIH and AspH-catalyzed peptide hydroxylations were analyzed simultaneously using SPE-MS as described in the
Methods section; competition experiments were performed in the same reaction vessel using equimolar 2OG
oxygenase and substrate concentrations. […]
Source data are provided as a Source Data file.
FIH and AspH-catalyzed peptide hydroxylations were analyzed simultaneously using SPE-
MS as described in the Methods section; competition experiments were performed in the same reaction vessel
using equimolar 2OG oxygenase and substrate concentrations. […]
2OG, 100 μM 14. Source data are provided as a Source Data file.

FIH = FIH (Homo sapiens, UniProt Q9NWT6); assay: SPE-MS FIH inhibition assay; format: biochemical; as to IC50 FIH: 0.15 µM FIH
FIH, sequence (Q9NWT6 whole entry): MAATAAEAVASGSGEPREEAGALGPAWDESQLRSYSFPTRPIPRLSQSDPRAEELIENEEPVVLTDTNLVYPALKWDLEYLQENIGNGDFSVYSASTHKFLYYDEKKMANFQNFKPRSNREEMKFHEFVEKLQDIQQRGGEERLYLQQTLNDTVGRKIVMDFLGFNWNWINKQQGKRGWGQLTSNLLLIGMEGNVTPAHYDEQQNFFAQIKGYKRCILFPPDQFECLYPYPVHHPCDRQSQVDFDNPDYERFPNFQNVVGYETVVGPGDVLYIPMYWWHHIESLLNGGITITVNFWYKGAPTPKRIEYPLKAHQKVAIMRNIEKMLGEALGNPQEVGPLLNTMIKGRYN
Procedure: FIH inhibition assays were performed as described, using cosubstrate/cofactor stock solutions (L-ascorbic acid, LAA: 50 mM in MQ-grade water; 2-oxoglutarate, 2OG: 10 mM in MQ-grade water; ammonium iron(II) sulfate hexahydrate, FAS, (NH4)2Fe(SO4)2·6H2O: 400 mM in 20 mM HCl diluted to 1 mM in MQ-grade water), which were freshly prepared from commercially-sourced solids (Sigma Aldrich).
Dimethyl sulfoxide (DMSO) solutions of the 2OG derivatives were dry dispensed across 384-well polypropylene assay plates (Greiner) in an approximately threefold and 11-point dilution series (100 μM top concentration; the final DMSO assay concentration was kept constant at 0.5%v/v) using an ECHO 550 acoustic dispenser (Labcyte). […] Each reaction was performed in technical duplicates in adjacent wells of the assay plates; additionally, assays were performed in two independent duplicates on different days using different inhibitor solutions.
The Enzyme Mixture (25 μL/well), containing 0.3 μM His6-FIH in buffer (50 mM Tris, 50 mM NaCl, pH 7.5), was dispensed across the inhibitor-containing 384-well assay plates with a multidrop dispenser (ThermoFischer Scientific) at 20 °C under an ambient atmosphere. The plates were subsequently centrifuged (1000 rpm, 15 s) and incubated for 15 min at 20 °C. The Substrate Mixture (25 μL/well), containing 10.0 μM HIF-1α788–822[37] substrate, 200 μM LAA, 20.0 μM 2OG, and 20.0 μM FAS in buffer (50 mM Tris, 50 mM NaCl, pH 7.5), was added using the multidrop dispenser. The plates were centrifuged (1000 rpm, 15 s) and after incubating for 15 min, the enzyme reaction was stopped by the addition of 10%v/v aqueous formic acid (5 μL/well). The plates were then centrifuged (1000 rpm, 30 s) and analyzed by MS.
MS-analyses were performed using a RapidFire RF 365 high-throughput sampling robot (Agilent) attached to an iFunnel Agilent 6550 accurate-mass quadrupole time-of-flight mass spectrometer operated in the positive ionization mode. Assay samples were aspirated under vacuum for 0.6 s and loaded onto a C4 SPE cartridge. After loading, the C4 SPE cartridge was washed with 0.1%v/v aqueous formic acid to remove non-volatile buffer salts (5.5 s, 1.5 mL/min). […] The mass spectrometer was operated using the MassHunter Workstation B.08.00 software (Agilent), the mass spectrometer parameters were: capillary voltage (4000 V), nozzle voltage (1000 V), fragmentor voltage (365 V), gas temperature (280 °C), gas flow (13 L/min), sheath gas temperature (350 °C), sheath gas flow (12 L/min). The m/z + 2 (for CA1–20) or +3 (for HIF-1α788–822) charge states of the peptide (substrate) and the hydroxylated peptide (product) were used to extract ion chromatogram data, peak areas were integrated using RapidFire Integrator 4.3.0 (Agilent). Data were exported into Microsoft Excel and used to calculate the % conversion of the hydroxylation reaction using the equation: % conversion = 100 × (integral product peptide)/(integral substrate peptide+integral product peptide). […] Z′-factors were calculated according to the cited literature using Microsoft Excel (Supplementary Fig. 26)[83].
SPE-MS FIH inhibition assays were performed as described in the Methods section.
Tris, 50 mM NaCl, pH 7.5, 20 °C). […]

AspH [2] = biological target: T1, AspH; conditions: 0.05 μM AspH, 1.0 μM hFX-CP101-119, 3.0 μM 2OG, ref 21 (supplementary ref 1); cited from earlier work
[3] = source data of Table 3, single independent replicates
[4] = source data of Table 3, single independent replicates, read-out: FIH IC50, independent replicate

Q: What does the source list for `CC(CC(=O)O)C(=O)C(=O)O` (centres unmarked) [compound 1, 3-methyl-2OG]?
A: substrate hydroxylation (% conversion) (AspH [1]; Fig 2c, 20 μM 1, AspH, 3.5005 min): 100; substrate hydroxylation (% conversion) (AspH [1]; Fig 2c, 20 μM 1, AspH, 4.20083 min): 100; substrate hydroxylation (% conversion) (AspH [1]; Fig 2c, 20 μM 1, AspH, 5.60117 min): 100; substrate hydroxylation (% conversion) (AspH [1]; Fig 2c, 20 μM 1, AspH, 6.29967 min): 100; substrate hydroxylation (% conversion) (AspH [1]; Fig 2c, 20 μM 1, AspH, 7.00033 min): 100; substrate hydroxylation (% conversion) (AspH [1]; Fig 2c, 20 μM 1, AspH, 7.7025 min): 100; substrate hydroxylation (% conversion) (AspH [1]; Fig 2c, 20 μM 1, AspH, 8.40233 min): 100; substrate hydroxylation (% conversion) (AspH [1]; Fig 2c, 20 μM 1, AspH, 9.10283 min): 100; substrate hydroxylation (% conversion) (AspH [1]; Fig 2c, 20 μM 1, AspH, 9.806 min): 100; substrate hydroxylation (% conversion) (AspH [1]; Fig 2c, 20 μM 1, AspH, […]): 100; AspH-catalyzed hFX-EGFD1_86–124-4Ser hydroxylation (AspH [1]; Fig 2c, 20 μM 1, within ~2 min): > 95%; FIH IC50, independent replicate (FIH; [3]): not inhibiting; IC50 AspH (AspH [2]): inactive

Q: For `O=C(O)CCC(=O)C(=O)O` [2OG, 2-Oxoglutarate], which “substrate hydroxylation (% conversion)” value (AspH [1]; Fig 2b, 20 μM 2OG, AspH, 1.4395 min) is on record?
A: 100

Q: What about the “substrate hydroxylation (% conversion)” value (AspH [1]; Fig 2b, 20 μM 2OG, AspH, 1.6805 min) of the same compound?
A: 100

Q: What about the “substrate hydroxylation (% conversion)” value (AspH [1]; Fig 2b, 20 μM 2OG, AspH, 1.9205 min) of the same compound?
A: 100

Q: And the “substrate hydroxylation (% conversion)” value (AspH [1]; Fig 2b, 20 μM 2OG, AspH, 2.40217 min)?
A: 100

Q: What about the “substrate hydroxylation (% conversion)” value (AspH [1]; Fig 2b, 20 μM 2OG, AspH, 2.64367 min) of the same compound?
A: 100

Q: And the “substrate hydroxylation (% conversion)” value (AspH [1]; Fig 2b, 20 μM 2OG, AspH, 2.88417 min)?
A: 100

Q: What about the “substrate hydroxylation (% conversion)” value (AspH [1]; Fig 2b, 20 μM 2OG, AspH, 3.1255 min) of the same compound?
A: 100

Q: And the “substrate hydroxylation (% conversion)” value (AspH [1]; Fig 2b, 20 μM 2OG, AspH, 3.3665 min)?
A: 100

Q: And the “substrate hydroxylation (% conversion)” value (AspH [1]; Fig 2b, 20 μM 2OG, AspH, 3.60917 min)?
A: 100

Q: And the “AspH-catalyzed hFX-EGFD1_86–124-4Ser hydroxylation” value (AspH [1]; Fig 2b, 20 μM 2OG, within about 1 min)?
A: > 95%

Q: And the “time to apparent completion of AspH substrate hydroxylation” value (AspH [1]; Fig 4a, 0.5 mM 2OG, absence of 13)?
A: ~ 1 min

Q: What about the AspH conversion (AspH [1]; Supplementary Fig 8a, 20 μM 2OG, after 2 min) of the same compound?
A: > 95%

Q: What does the source list for `CC(CC(=O)C(=O)O)C(=O)O` (centres unmarked) [compound 12, 4-methyl-2OG]?
A: time to complete AspH-catalyzed hydroxylation of hFX-EGFD1_86–124-4Ser (AspH [1]; Fig 2e, 20 μM 12 and 100 μM 2OG): ~ 2 min; substrate hydroxylation (% conversion) (AspH [1]; Fig 2e, 20 μM 12 and 100 μM 2OG, AspH, 1.918 min): 100; substrate hydroxylation (% conversion) (AspH [1]; Fig 2e, 20 μM 12 and 100 μM 2OG, AspH, 2.15883 min): 100; substrate hydroxylation (% conversion) (AspH [1]; Fig 2e, 20 μM 12 and 100 μM 2OG, AspH, 2.6405 min): 100; substrate hydroxylation (% conversion) (AspH [1]; Fig 2e, 20 μM 12 and 100 μM 2OG, AspH, 2.88117 min): 100; substrate hydroxylation (% conversion) (AspH [1]; Fig 2e, 20 μM 12 and 100 μM 2OG, AspH, 3.12267 min): 100; substrate hydroxylation (% conversion) (AspH [1]; Fig 2e, 20 μM 12 and 100 μM 2OG, AspH, 3.36583 min): 100; substrate hydroxylation (% conversion) (AspH [1]; Fig 2e, 20 μM 12 and 100 μM 2OG, AspH, 3.60733 min): 100; substrate hydroxylation (% conversion) (AspH [1]; Fig 2e, 20 μM 12 and 100 μM 2OG, AspH, […]): 100; AspH-catalyzed hFX-EGFD1_86–124-4Ser hydroxylation (AspH [1]; Fig 2d, 20 μM 12, after ~10 min): ~ 90%; FIH IC50, independent replicate (FIH; [3]): not inhibiting; IC50 AspH (AspH [2]): inactive; also recorded: neither inhibits AspH nor FIH

Q: Which IC50 (FIH; [4]) does the source give for `O=C(O)C(=O)CC(CCCc1ccccc1)C(=O)O` (centres unmarked) [compound 18, 4-(3-phenylpropyl)-2OG] here?
A: 0.864 µM and 0.923 µM

Q: Which results are given for `CCC(CC(=O)C(=O)O)C(=O)O` (centres unmarked) [compound 14, 4-ethyl-2OG]?
A: AspH-catalyzed hydroxylation of hFX-EGFD1_86–124-4Ser (AspH [1]; Fig 2f, 100 μM 14, absence of 2OG): not observed; AspH catalysis (AspH [1]; Supplementary Fig 27, tenfold excess of 14 over 100 μM 2OG): entirely suppressed; IC50 (FIH; […] FIH, 5.0 μM HIF-1α788-822, 10 μM 2OG, mean of two runs, read-out: IC50 FIH): 19.3 µM; IC50 (FIH; [4]): 27.8 µM and 13.3 µM and 16.6 µM

Q: For `O=C(O)C(=O)C1CCC(C(=O)O)C1` (centres unmarked) [compound 22, 3-(carboxycarbonyl)cyclopentane-1-carboxylic acid], which “IC50 FIH” value (FIH; […] FIH, 5.0 μM HIF-1α788-822, 10 μM 2OG, mean of two runs) is on record?
A: inactive

Q: And the IC50 (AspH [2])?
A: 5 µM
